Legend:
[1] = tested on: N. viridis males; assay: Petri dish choice bioassay (arrestment of males on impregnated paper disks); assay type: in vivo, Nipaecoccus viridis; conditions: for mean number of males attracted to bait (arrested on paper disk): 10 ng on filter paper disk, 24 males released, counted after 1 h, mean ±SE, n=6
Description: Insects. N. viridis populations were collected from two citrus groves in Israel, in West Negev and the […] areas. These populations were used to establish a colony on sprouted potatoes (Solanum tuberosum) in a rearing room at 25±1° C., 50-60% relative humidity, and under a photoperiod of […]:10D. First stage larval instars were separated to a different cage and emerged adult males were removed manually each day (Levi-Zada et al. 2014). Adult females, 10 days after the last molt, were transferred to clean potato sprouts for further use in experiments. Behavioral Bioassays. The two putative female sex pheromone components and their 1:1 mixture were tested in 14-cm diameter glass Petri dish arenas (Mendel et al. 2012). Four filter paper disks (5-mm diameter, Whatman No. 1) impregnated with 1 μl n-hexane solutions containing 10 ng γ-necrodol (I), 10 ng γ-necrodyl isobutyrate (II), 5 ng of each I+II combined, and solvent only (control) were equally spaced in random order on the periphery of the arena in each test (n=6). Twenty-four males were released in each of the tests at the center of a Petri dish and after 1 h the number of males found on each paper disk was recorded. […] If a significant difference was found then post-hoc pairwise Conover tests with Bonferroni correction for multiple comparisons was performed (same PMCMR package).

[2] = tested on: N. viridis males; assay: Flight bioassay with baited sticky traps in rearing room; assay type: in vivo, Nipaecoccus viridis; conditions: for average males caught on sticky trap: 20 μg in polyethylene vial, 12 days, mean ±SE, N=12; for statistical comparison of male catches per day with control: Kruskal-Wallis P=0.001, Conover's test at α=0.05
Description: Insects. N. viridis populations were collected from two citrus groves in Israel, in West Negev and the Galilee areas. These populations were used to establish a colony on sprouted potatoes (Solanum tuberosum) in a rearing room at 25±1° C., 50-60% relative humidity, and under a photoperiod of 14L:10D. First stage larval instars were separated to a different cage and emerged adult males were removed manually each day (Levi-Zada et al. 2014). Adult females, 10 days after the last molt, were transferred to clean potato sprouts for further use in experiments.
Flight bioassays of males compared the attractiveness of the female produced components in a 3×3 m^2 rearing room in which a colony of mealybugs, in several open plastic containers, was placed on the floor in the center. Traps consisting of white cards (18×10 cm^2) covered with 80% polyisobutene adhesive (Rimifoot, Rimi, Petah Tikva, Israel) were baited with 0.5 ml 5×8 mm ID×OD polyethylene vials (Just Plastic, Norfolk, UK) containing either 20 μg of γ-necrodol (I), γ-necrodyl isobutyrate (II), their mixture (I+II, 20 μg each), each in 200 μl n-hexane solution, or only 200 μl n-hexane control. The baited traps were hung at 1.2 m height, separated by 2.8 m and were rotated in position every day for 12 days. The Kruskal-Wallis rank sum test and post-hoc Conover tests above were used to compare catches on treatments for statistical differences.

| Molecule | mean number of males attracted to bait (arrested on paper disk) [1] [males] | average males caught on sticky trap [2] [males per day] | statistical comparison of male catches per day with control [2] | statistical comparison of male arrestment with control ([1]; Kruskal-Wallis, post-hoc Conover tests with Bonferroni correction, all P<0.0001) |
| --- | --- | --- | --- | --- |
| CC1=C(C)C(C)(C)C(CO)C1 (stereo not shown) [compound I, 2,2,3,4-tetramethyl-3-cyclopentene-1-methanol] | 0.5±0.2 | 139±41 | not significantly different |  |
| γ-necrodyl isobutyrate [compound II] | 3.16±0.7 | 654±178 | significantly more | significantly different from I or control |

Reference: patent US20240057617A1, “COMPOSITIONS AND METHODS FOR MEALYBUG MONITORING AND CONTROL” (The State of Israel, Ministry of Agriculture & Rural …, priority 2019, published 2024)
